Measurements as given in patent US20250099952A1, “MICROFLUIDIC DEVICE AND USES THEREOF” (CASE WESTERN RESERVE UNIVERSITY, priority 2019, published 2025).

What was measured:
[1] = test system: RBCs from healthy donors; experiment: Occlusion Chip microfluidic assessment of RBC deformability (RBC Occlusion Index) after chemical treatment; assay type: cell-based, human; conditions: for RBC Occlusion Index (ROI), mean±SEM: directly suspended in PBS, N=4
Procedure: Whole blood samples were centrifuged at 500×g for 5 min at 4° C., plasma was removed, and the RBCs were washed twice in PBS, and re-suspended at a 20% hematocrit value. The Occlusion Chip was placed on an Olympus IX83 inverted motorized microscope stage for high-resolution imaging. The RBC samples were perfused through the microchannel under constant pressure for 20 min (FIGS. 12A & B). Non-retained RBCs were rinsed away by injecting PBS into the microchannel under the same pressure. […] Phase contrast, bright field, and fluorescent images were recorded at 20× using the Olympus Cell Sense live imaging software (excitation/emission wavelength, 488/505-580 for Green Fluorescent Protein, GFP). Post processing of recorded images and cell counting were performed using Adobe Photoshop (San Jose, CA). Oxygen tension was controlled in hypoxia experiments using a custom designed gas exchange setup as described in Supplementary Materials. Scanning electron microscopy was performed on the micropillars and RBCs.
Glutaraldehyde, a non-specific protein cross-linker, and diamide, a thiol group oxidant inducing disulfide cross-linking of band 3, are used to stiffen RBCs in order to mimic impaired RBC deformability, seen in pathological conditions. Precisely controlled exposure of RBC to graded concentrations of glutaraldehyde or diamide was utilized to verify Occlusion Chip functionality. RBCs from healthy donors exposed to graded concentrations, 0.00% (as control), 0.02%, 0.04%, and 0.08% (w/v), of glutaraldehyde were mixed with untreated normal RBCs to achieve 1% treated cells and were suspended in PBS for microfluidic assessment. RBCs exposed to same graded concentrations of diamide were directly suspended in PBS for microfluidic assessment. […] The retained RBCs were fluorescently labeled with anti-glycophorin A (CD235a, Abcam, Cambridge, MA) antibodies. […] At the end of the test, numbers of occlusions induced by poorly-deformable RBCs within each micropillar array were quantified (FIGS. 7D&E). […] To assess the overall RBC deformability of specific samples, we assigned different weight to the occlusion events quantitated within different micropillar arrays, and defined a new parameter ‘RBC Occlusion Index’ (ROI) using the following equation,
Mercury is a toxic heavy metal that binds to RBC membranes with high affinity and results in RBC hemolysis. Mercuric ions induce membrane conformational changes and impair RBC deformability.

[2] = test system: RBCs in whole venous blood; experiment: Fibrinogen-accelerated RBC sedimentation in whole blood; assay type: cell-based, human; conditions: fibrinogen stock 40 mg/ml mixed with whole blood 1:9 to 1:1 (v/v), monitored over 20 min, compared to PBS
Procedure: The experiments are performed immediately after blood draw through […]. We examine the effect of additional fibrinogen on RBC sedimentation, which has been reported to have a marked correlation between the concentration of and the erythrocyte sedimentation rate.
Whole venous blood was drawn with anticoagulated EDTA into a 1.5 ml microcentrifuge tube. Fibrinogen stock solution with the concentration of 40 mg/ml (in PBS) was mixed with whole blood at ratios of 1:9, 1:4, 1:2, and 1:1 (v/v) and the final volume of the mixtures was adjusted to 500 μl. Control groups were mixtures of whole blood and PBS at the same volume ratios. The sedimentation of RBCs was monitored over a period of 20 minutes. […] In addition, fibrinogen mediated RBC sedimentation became stable when it approached 20 min, and no more noticeable difference was observed between blood samples with different concentrations of fibrinogen. Therefore, the 1:9 fibrinogen and whole blood mixture (4 mg/ml final fibrinogen concentration) was selected based on a cost-effective point of view, from which 150 μl plasma was collected for further processing.

mercuric ion
effect on RBC deformability [1]: moderately reduces RBC deformability

fibrinogen
RBC sedimentation (visual, words) [2]: significantly accelerated the sedimentation of RBCs compared to PBS

CN(C)C(=O)/N=N/C(=O)N(C)C [diamide]
RBC Occlusion Index (ROI), mean±SEM ([1]; RBCs exposed to 0.02% diamide): 329.9±37.2
RBC Occlusion Index (ROI), mean±SEM ([1]; RBCs exposed to 0.04% diamide): 459.8±71.6
RBC Occlusion Index (ROI), mean±SEM ([1]; RBCs exposed to 0.08% diamide): 645.1±87.6
effect on RBC stiffness and membrane morphology ([1]; diamide exposure, micropillar device 20 μm to 4 μm): induce structural stiffening of RBCs without interrupting the cell membrane morphology

O=CCCCC=O [glutaraldehyde]
increase in total occlusion level compared to the control ([1]; 0.08% (w/v) glutaraldehyde): more than 16 fold
